Entries after “also recorded” stand apart in the source; their conditions may differ.
Target: Keap1 (Kelch domain) (Homo sapiens, UniProt Q14145)
Details: SAR discussion

Keap1 (Kelch domain), sequence (Q14145 321-609): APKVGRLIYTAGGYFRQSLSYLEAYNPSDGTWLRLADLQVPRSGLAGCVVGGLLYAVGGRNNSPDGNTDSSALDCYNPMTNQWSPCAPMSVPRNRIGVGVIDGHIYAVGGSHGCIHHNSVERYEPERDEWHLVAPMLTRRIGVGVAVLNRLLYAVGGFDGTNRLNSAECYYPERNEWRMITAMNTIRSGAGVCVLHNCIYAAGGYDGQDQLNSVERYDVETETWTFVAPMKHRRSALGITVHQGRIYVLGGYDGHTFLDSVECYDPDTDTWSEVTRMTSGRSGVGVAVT

| Compound | Activity in fluorescence anisotropy assay (in words) |
| --- | --- |
| COc1ccc(S(=O)(=O)Nc2cc3ccccc3cc2N(CC(N)=O)S(=O)(=O)c2ccc(OC)cc2)cc1 [Compound 23, 2-(naphthalene-2,3-diylbis(((4-methoxyphenyl)sulfonyl)azanediyl))acetamide] | loss of activity; also recorded: inactive |
| COc1ccc(S(=O)(=O)Nc2cc3ccccc3cc2NS(=O)(=O)c2ccc(OC)cc2)cc1 [Compound 20, N,N′-(naphthalene-2,3-diyl)bis(4-methoxybenzenesulfonamide)] | loss of activity |
| COc1ccc(S(=O)(=O)N(CC(=O)O)c2cccc3ccccc23)cc1 [Compound 18, N-((4-methoxyphenyl)sulfonyl)-N-(naphthalen-1-yl)glycine] | inactive |
| O=S(=O)(Nc1ccc(NS(=O)(=O)c2ccccc2)c2ccccc12)c1ccccc1 [Compound 11a, N,N′-(naphthalene-1,4-diyl)dibenzenesulfonamide] | inactive |
| COc1ccc(S(=O)(=O)Nc2cc(NS(=O)(=O)c3ccc(OC)cc3)c3ccccc3c2)cc1 [Compound 19, N,N′-(naphthalene-1,3-diyl)bis(4-methoxybenzenesulfonamide)] | loss of activity |
| O=S(=O)(Nc1ccc(NS(=O)(=O)c2cccc(C(F)(F)F)c2)c2ccccc12)c1cccc(C(F)(F)F)c1 [Compound 11f, N,N′-(naphthalene-1,4-diyl)bis(3-trifluoromethylbenzenesulfonamide)] | inactive |
| O=C(O)c1cccc(S(=O)(=O)Nc2ccc(NS(=O)(=O)c3cccc(C(=O)O)c3)c3ccccc23)c1 [Compound 11d, 3,3′-(((4-(hydrosulfonylamino)naphthalen-1-yl)amino)sulfonyl)dibenzoic acid] | inactive |
| COc1ccc(S(=O)(=O)Nc2cccc3ccccc23)cc1 [Compound 17, 4-methoxy-N-(naphthalen-1-yl)benzenesulfonamide] | inactive |
| COc1ccc(S(=O)(=O)N(CC(N)=O)c2cc(N(CC(N)=O)S(=O)(=O)c3ccc(OC)cc3)c3ccccc3c2)cc1 [Compound 21, 2,2′-(naphthalene-1,3-diylbis(((4-methoxyphenyl)sulfonyl)azanediyl))diacetamide] | loss of activity; also recorded: inactive |
| COc1ccc(S(=O)(=O)N(CC(=O)O)c2cc(N(CC(=O)O)S(=O)(=O)c3ccc(OC)cc3)c3ccccc3c2)cc1 [Compound 22, 2,2′-(naphthalene-1,3-diylbis(((4-methoxyphenyl)sulfonyl)azanediyl))acetic acid] | loss of activity |
